Assay results taken from PubChem BioAssay (NCI).
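Briefly, cells in 96-well plates were exposed to five compound concentrations for 48 h, and endpoints were estimated by linear interpolation. At the GI50, growth is halved. TGI marks complete inhibition of growth.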

Columns and labels:
Experiment in all cases: DTP human tumour cell line panel, 48 h
COLO 205 colon = test system: COLO 205 colon
MCF7 breast = test system: MCF7 breast
NCI/ADR-RES ovarian = test system: NCI/ADR-RES ovarian
M14 melanoma = test system: M14 melanoma
OVCAR-4 ovarian = test system: OVCAR-4 ovarian
MALME-3M melanoma = test system: MALME-3M melanoma
LOX IMVI melanoma = test system: LOX IMVI melanoma
SR leukemia = test system: SR leukemia
A549 NSCLC = test system: A549 NSCLC
NCI-H460 lung = test system: NCI-H460 lung
HOP-62 NSCLC = test system: HOP-62 NSCLC
SNB-19 CNS = test system: SNB-19 CNS

## COc1cc(/C=C2\CN(S(=O)(=O)c3ccc(C)cc3)C/C(=C\c3cc(CN4CCCC4)c(O)c(OC)c3)C2=O)cc(CN2CCCC2)c1O
COLO 205 colon
  GI50: 568 nM
  TGI: 2.03 µM
MCF7 breast
  GI50: 967 nM
  TGI: 3.93 µM
NCI/ADR-RES ovarian
  GI50: 12 µM
  TGI: > 100 µM
M14 melanoma
  GI50: 1550 nM
  TGI: 3.17 µM
OVCAR-4 ovarian
  GI50: 1340 nM
  TGI: 2.69 µM
MALME-3M melanoma
  GI50: 1710 nM
  TGI: 3.3 µM
LOX IMVI melanoma
  GI50: 649 nM
  TGI: 2.02 µM
SR leukemia
  GI50: 412 nM
  TGI: 3.45 µM

## CO[C@](C(=O)OC[C@H]1[C@@H](COC(C)=O)[C@@H]2O[C@H]1c1cc3c(cc12)OCO3)(c1ccccc1)C(F)(F)F
A549 NSCLC
  TGI: 94.3 µM
NCI-H460 lung
  TGI: 49.6 µM
COLO 205 colon
  TGI: 93.2 µM
HOP-62 NSCLC
  TGI: 73.6 µM
SNB-19 CNS
  TGI: > 100 µM
M14 melanoma
  TGI: > 100 µM
OVCAR-4 ovarian
  TGI: > 100 µM
MALME-3M melanoma
  TGI: > 100 µM
SR leukemia
  TGI: > 100 µM

## Cc1ccc(C(=O)OC(C(=O)O)C(OC(=O)c2ccc(C)cc2)C(=O)O)cc1 (stereo unspecified) (tested in a mixture with another compound)
A549 NSCLC
  TGI: 22.3 µM
NCI-H460 lung
  TGI: 10.3 µM
COLO 205 colon
  TGI: 10.5 µM
HOP-62 NSCLC
  TGI: 29.2 µM
MCF7 breast
  TGI: 11.8 µM
SNB-19 CNS
  TGI: 25.6 µM
NCI/ADR-RES ovarian
  TGI: 23 µM
OVCAR-4 ovarian
  TGI: 21.6 µM
MALME-3M melanoma
  TGI: 12 µM
LOX IMVI melanoma
  TGI: 20.6 µM

## O=C(CC1Sc2ccccc2NC1=O)Nc1ccccc1[N+](=O)[O-] (stereo unspecified)
A549 NSCLC
  TGI: > 100 µM
NCI-H460 lung
  TGI: > 100 µM
COLO 205 colon
  TGI: > 100 µM
HOP-62 NSCLC
  TGI: > 100 µM
SNB-19 CNS
  TGI: > 100 µM
M14 melanoma
  TGI: > 100 µM
OVCAR-4 ovarian
  TGI: > 100 µM
MALME-3M melanoma
  TGI: > 100 µM
LOX IMVI melanoma
  TGI: > 100 µM
SR leukemia
  TGI: > 100 µM

## Oc1ccc(NCn2c(=S)sc3ccccc32)cc1
A549 NSCLC
  TGI: > 100 µM
NCI-H460 lung
  TGI: > 100 µM
COLO 205 colon
  TGI: > 100 µM
HOP-62 NSCLC
  TGI: > 100 µM
MCF7 breast
  TGI: > 100 µM
SNB-19 CNS
  TGI: > 100 µM
NCI/ADR-RES ovarian
  TGI: > 100 µM
M14 melanoma
  TGI: > 100 µM
OVCAR-4 ovarian
  TGI: > 100 µM
MALME-3M melanoma
  TGI: > 100 µM
LOX IMVI melanoma
  TGI: > 100 µM
